In PMC6723440 (Toxins, 2019):
Like-named read-outs stand apart in the source and are kept apart here.

Legend:
[1] = human; for percentage of metabolized parent toxin in phase I reactions: microsomes, 1 h
[2] = human, pH 7.4
[3] = human; cited from earlier work
[4] = in vivo; cited from earlier work
[5] = human, pH 7.4; remark: listed apart in the source

CC(=O)O[C@@H]1C[C@]2(C)[C@@]3(CO)[C@H](O)C(=O)C(C)=C[C@H]3O[C@H]1[C@@]21CO1 [3-AcDON, 3-acetyldeoxynivalenol]
converted into DON ([1]; pH 7.4): 50% | LC-MS Library: metabolites generated [2]: Phase I metabolites: DON Glucuronides: Gluc-3-AcDON | metabolized to DON [3]: 78%

CC(=O)OC[C@]12[C@H](O)C(=O)C(C)=C[C@H]1O[C@@H]1[C@H](O)C[C@@]2(C)[C@]12CO2 [15-AcDON, 15-acetyldeoxynivalenol]
converted into DON ([1]; pH 7.4): 1% | LC-MS Library: metabolites generated [2]: Phase I metabolites: DON Glucuronides: Gluc-15-AcDON

CC1=C[C@H]2O[C@@H]3[C@H](O)C[C@](C)([C@@]2(CO)[C@H](O)C1=O)[C@]31CO1 [DON, deoxynivalenol]
converted into DNIV ([1]; pH 7.4): less than 1% | LC-MS Library: metabolites generated [2]: Phase I metabolites: NIV, DOM-1 and its two isomers, Glucuronides: 15-Gluc-DON, 3-Gluc-DON | predominant species in urine [4]: 27% | total urinary DON present as free DON [4]: 27.4% | total urinary deoxynivalenol (DON) composed of its glucuronides (15-Gluc-DON and 3-Gluc-DON) [4]: approximately 72.6%

CC(=O)OC[C@]12C[C@H](OC(=O)CC(C)C)C(C)=C[C@H]1O[C@@H]1[C@H](O)[C@@H](O)[C@@]2(C)[C@]12CO2 [HT-2, HT-2 toxin]
LC-MS Library: metabolites generated [2]: Phase I metabolites: 4-de-Ac-NEO and its isomer, 3′-OH-HT-2, 4′-OH-HT-2 and its isomer Three OH-T-2 metabolites at 7 or 10 or 16-OH-HT-2 Two unknown metabolites Glucuronides: Gluc-3-HT-2

CC1=C[C@H]2O[C@@H]3[C@H](O)[C@@H](O)[C@](C)([C@@]2(CO)[C@H](O)C1=O)[C@]31CO1 [NIV, nivalenol]
converted into DNIV ([1]; pH 7.4): 5% | glucuronidation [5]: < 1%

CC(=O)OCC12CC(OC(=O)CC(C)C)C(C)=CC1OC1C(OC3OC(C(=O)O)C(O)C(O)C3O)C(OC(C)=O)C2(C)C12CO2 (stereo not drawn) [T-2 glucuronide]
share of glucuronide form [5]: 8%

C[C@H]1CCCC(=O)CCCCCc2cc(O)cc(O)c2C(=O)O1 [ZAN, zearalanone]
percentage of metabolized parent toxin in phase I reactions ([1]; pH 7.4): 66% | Number of Metabolites (n): Desaturation oxidation, −(H2) +(O2) ([1]; pH 7.4): 2 | Number of Metabolites (n): Desaturation, oxidation, −(H2) +(O) ([1]; pH 7.4): 1 | Number of Metabolites (n): Desaturation, oxidation, −(H4) +(O) ([1]; pH 7.4): 0 | Number of Metabolites (n): Oxidation +(O) ([1]; pH 7.4): 5(23%) | Number of Metabolites (n): Oxidation, +(O2) ([1]; pH 7.4): 6(27%) | Number of Metabolites (n): Oxidation, −(H4) +(O2) ([1]; pH 7.4): 0 | share of Oxidation +(O) metabolites in ∑ n ([1]; pH 7.4): 5(23%) | share of Oxidation, +(O2) metabolites in ∑ n ([1]; pH 7.4): 6(27%) | share of Reduction, oxidation, +(H2) +(O) metabolites in ∑ n ([1]; pH 7.4): 8(36%) | ∑ n, total number of oxidized metabolites ([1]; pH 7.4): 22 | Total Number of Glucuronides [5]: 24 | converted into glucoronides [5]: 93% | glucuronides of oxidized metabolites and double glucuronides (minor products) [5]: 19% | glucuronides of parent toxins at position C-14 [5]: 73% | share of species, Figure 7 pie [5]: 7% | sum of parent glucuronides [5]: 74% | LC-MS Library: metabolites generated [2]: Phase I metabolites: (-(H2) +(O))-ZAN, (+(O))-ZAN, (+(H2)+ (O))-ZAN, (+(O2))-ZAN, (-(H2) +(O2))-ZAN Glucuronides: Gluc-16-ZAN, Gluc-14-ZAN, Gluc-(+O)- ZAN, 2xGluc- ZAN, Gluc-(+(H2)+(O))-ZAN, 2 × Gluc-(+O)-ZAN, 2 × Gluc-(+(H2)+(O))-ZAN

C[C@H]1CCCC(=O)CCC/C=C/c2cc(O)cc(O)c2C(=O)O1 [ZEN, zearalenone]
percentage of metabolized parent toxin in phase I reactions ([1]; pH 7.4): 27% | Number of Metabolites (n): Desaturation oxidation, −(H2) +(O2) ([1]; pH 7.4): 0 | Number of Metabolites (n): Desaturation, oxidation, −(H2) +(O) ([1]; pH 7.4): 1 | Number of Metabolites (n): Desaturation, oxidation, −(H4) +(O) ([1]; pH 7.4): 0 | Number of Metabolites (n): Oxidation, +(O2) ([1]; pH 7.4): 0 | Number of Metabolites (n): Oxidation, −(H4) +(O2) ([1]; pH 7.4): 0 | Number of Metabolites (n): Reduction, oxidation, +(H2) +(O) ([1]; pH 7.4): 2 | share of Oxidation +(O) metabolites in ∑ n ([1]; pH 7.4): 9(75%) | ∑ n, total number of oxidized metabolites ([1]; pH 7.4): 12 | Total Number of Glucuronides [5]: 10 | converted into glucoronides [5]: 99% | glucuronides of oxidized metabolites and double glucuronides (minor products) [5]: 8% | glucuronides of parent toxins at position C-14 [5]: 86% | share of species, Figure 7 pie [5]: 1% | sum of parent glucuronides [5]: 91% | LC-MS Library: metabolites generated [2]: Phase I metabolites: (-(H2) +(O))-ZEN, (+(O))-ZEN, (+(H2)+ (O))-ZEN Glucuronides: Gluc-16-ZEN, Gluc-14-ZEN, Gluc-(+O)-ZEN, 2xGluc-ZEN

C[C@H]1CCC[C@H](O)CCCCCc2cc(O)cc(O)c2C(=O)O1 [α-ZAL, 7-α-hydroxy-zearalanol]
percentage of metabolized parent toxin in phase I reactions [1]: 29%

C[C@H]1CCC[C@H](O)CCC/C=C/c2cc(O)cc(O)c2C(=O)O1 [α-ZOL, 7-α-hydroxy-zearalenol]
percentage of metabolized parent toxin in phase I reactions [1]: 70%

C[C@H]1CCC[C@@H](O)CCCCCc2cc(O)cc(O)c2C(=O)O1 [β-ZAL, 7-β-hydroxy-zearalanol]
percentage of metabolized parent toxin in phase I reactions [1]: 23%
